# From patent US8685976B2, “Cell adhesion promoting agent and method of promoting cell adhesion” (Kyoto University, priority 2008, dated 2014)
# Entries after “also recorded” stand apart in the source; their conditions may differ. Read-outs that look alike come from different tables or passages of the source.
# Tests used:
# [1] = system: Jurkat cells; experiment: Cell adhesion assay by addition, Jurkat cells; format: cell-based, human; conditions: Jurkat cells; for cell-adhesion promoting activity of adhesamine derivatives: FIG. 6
# Procedure: 1 μL each of an aqueous solution of adhesamine (1), Type I collagen, poly-L-lysine hydrochloride, poly-L-ornithine hydrobromide, and fibronectin at a concentration of 50, 500, and 5000 μg/ml, was added to 96-well plate. 100 μL of HepG2 suspension (4×10^5 cells/mL) was added to each well. After 3-hour incubation at 37° C., non-adherent cells were removed by washing each well with PBS three times, and the attached cells were counted with a Neubauer counting chamber (Digital Bio). For Jurkat cells, 100 μL of cell suspension was added to each well at a density of 1×10^6 cells/ml. After 5-hour incubation at 37° C., non-adhered cells were removed by washing each well with PBS twice, and the attached cells were counted with a Neubauer counting chamber (Digital Bio). To calculate adhesion rates, firstly seeded cell numbers were assigned a value of 100%. As control tests, the same tests were conducted using wells supplied with only 1 μL of DMSO. Each assay was conducted in triplicate, and the means and standard derivations were calculated.
# The comparison between adhesamine and its derivatives regarding cell adhesion promotion activity was conducted using Jurkat cells by way of reagent addition assay. 1 μL each of DMSO solutions of the compounds having concentrations of 60, 600, and 6000 μM were added to 96-well plates. The wells were supplied with 100 μL each of Jurkat cell suspensions (1×10^6 cells/mL). After 5-hour incubation at 37° C., non-adhered cells were removed by washing each well with PBS twice, and the attached cells were counted with a Neubauer counting chamber (Digital Bio). To calculate adhesion rates, firstly seeded cell numbers were assigned a value of 100%. As control tests, the same tests were conducted using well plates supplied with only 1 μL of DMSO. Each assay was conducted in triplicate, and the means and standard derivations were calculated.
# However, since HepG2 cells have an intrinsic propensity to adhere to plastic tissue-culture plates, a test was conducted to determine whether the same effect was also obtained in the Jurkat cell line and human T-lymphocytes that are floating cells. Remarkably, 30% and 60% of the Jurkat cells attached to a culture plate in the presence of 6 and 60 μM of adhesamine, respectively (FIG. 1D). Removal of adhesamine by washing the plate twice with PBS detached the cells. 93% of Jurkat cells were released from the surface of a culture plate 24 hour after washing (FIG. 2). […] Simply adding adhesamine to the medium promoted adhesion of Jurkat cells onto culture plates, but not to each other.
# [2] = system: adhesamine (6 μM)-induced cell attachment of Jurkat cells; experiment: Squelching assay; format: cell-based, human; conditions: for IC50: adhesamine 6 μM, Jurkat cells
# Procedure: Adhesamine (1: 0.6 nmol) and each glycosaminoglycan (GAG) (heparin, heparan sulfate, chondroitin sulfate, keratan sulfate, hyaluronic acid, and heparin oligosaccharides) ranging from 0.006 to 12 nmol were stirred in 10 μL of 50 mM phosphate buffer (pH 6.0) containing 100 mM NaCl and 1% DMSO with a vortex mixer at room temperature for 30 min. Thereafter, these mixtures were transferred to 96-well plates, and 90 μL of Jurkat cell suspension (1×10^5 cells/mL) was added to each well. After 5-hour incubation at 37° C., non-adherent cells were removed by washing each well with PBS twice, and the attached cells were counted with a Neubauer counting chamber (Digital Bio). To calculate the inhibition rates, the number of attached cells in the wells supplied only with 1% DMSO or GAG of each concentration was subtracted from the number of cells in which the cell adhesions were observed after addition of the samples. The inhibition rate is expressed as follows.
# wherein AC+(−)GAGs, +(−)adhesamine expresses the number of adhered cells in the presence (absence) of GAGs and adhesamine.
# IC50 values are defined as the concentrations of GAGs required for 50% inhibition of the adhesamine (6 μM)-induced cell attachment. The results of the squelching assays were plotted as percentage of inhibition vs. log (GAG), and IC50 values were determined from curve fits of multiple independent experiments.
# [3] = system: focal adhesion kinase (FAK); experiment: Western blotting, FAK activation; format: cell-based, human; conditions: Jurkat, adhesamine 6 μM, excess heparin or RGD peptide (100 μg/mL)
# Procedure: (§1) Jurkat cells were treated with adhesamine (6 μM) in a serum-poor culture medium (0.1% FBS) for the indicated periods of time. The treated cell lysates were Western blotted with antibodies against FAK phospho-tyrosine^397 (pFAK), FAK, ERK1/2 phospho-threonine^202/tyrosine^204 (pERK) or ERK. In (B), Jurkat cells were incubated for 5 hours with varied concentrations of adhesamine or poly-L-lysine. The cell lysates were Western blotted with antibodies against FAK phospho-tyrosine^397 or FAK. […] The concentration of adhesamine (1) was 6 μM.
# (§2) Jurkat cells were maintained in an RPMI medium containing 10% FBS. 5-6 million Jurkat cells were dispensed to a well of a 6-well plate in a final volume of 2 mL, and then incubated at 37° C. for 0-5 hours in the presence of adhesamine or poly-L-lysine. Non-adherent cells were removed and pelleted, and the remaining adherent cells were lysed in a 125 mM Tris-HCl buffer (pH 6.8) containing 4% SDS, 10% glycerol, 0.006% bromophenol blue, and 1.8% β-mercaptoethanol. The adherent cell homogenate was combined with pelleted nonadherent cells from the same well, and the combined sample was boiled for 5 minutes. The samples were separated by SDS-PAGE and electroblotted onto a nitrocellulose membrane. The membranes were blocked in 1% BSA and incubated with primary antibody, and then with horseradish peroxidase-conjugated secondary antibody. The blots were developed using the enhanced chemiluminescence technique.
# [4] = system: extracellular signal-regulated kinase (ERK); experiment: Western blotting, ERK activation; format: cell-based, human; conditions: Jurkat, excess amounts of heparin
# Procedure: as §1
# as §2, with “The blots were developed using the enhanced chemiluminescence technique.” left out
# [5] = system: Jurkat cells; experiment: Cytoskeletal disruption, cell adhesion; format: cell-based, human; conditions: for effect on adhesamine-mediated cell adhesion: adhesamine 6 μM, cytochalasin B 0-100 μM or nocodazole 0-0.5 μM; for effect on fibronectin-mediated cell adhesion: fibronectin-coated plate; for effect on cell attachment induced by poly-L-lysine: poly-L-lysine-coated plate
# Procedure: Jurkat cells were adhered to plastic plates by adding adhesamine thereto in the presence of nocodazole (a tubulin inhibitor) or cytochalasin B (an actin inhibitor). Both nocodazole and cytochalasin inhibited adhesamine-induced cell adhesion, as observed in the cells adhered to a fibronectin-coated plate. […] The concentration of adhesamine was 6 μM. The fibronectin- or poly-L-lysine-coated plates were prepared by pretreating wells of 96-well plates with fibronectin or poly-L-lysine (1 ng/well).
# Jurkat cells (5×10^4) were cultured in 100 μL of RPMI, and incubated with cytochalasin B (0-100 μM) or nocodazole (0-0.5 μM) at 37° C. The treated cells were then assayed for their responses to adhesamine (6 μM). Their responses to fibronectin- or poly-L-lysine-coated plates were also evaluated. The coated plates were prepared by pretreating wells of 96-well plates with fibronectin or poly-L-lysine (1 ng/well).
# [6] = system: HepG2 cells; experiment: Confocal imaging of fluorescent compounds; format: cell-based; conditions: for localization of the fluorescent compound: HepG2, 6 μM, 3 hours
# Procedure: HepG2 cells were incubated with Compound 4 (6 μM, A and C) or Compound 5 (6 μM, B and D) for 3 hours after seeding.
# In (A) and (B), Jurkat cells (A) or HepG2 cells (B) were pretreated with 0.02 units/mL of heparinase, heparitinase I, and heparitinase II, or 0.1 units/mL of protease-free chondroitinase ABC in a serum-free culture medium for 1 hour at 37° C. before evaluating cell adhesion. The treated cells were seeded onto adhesamine-added or fibronectin-coated plastic wells. The attached cells were counted at 5 hours after seeding. The concentrations of adhesamine and fibronectin were 6 μM and 5 μg/mL, respectively. Each point represents the means±SD. (C) and (D) show localization of Compound 4 in HepG2 cells treated with heparinase/heparitinase I/heparitinase II (C) or chondroitinase ABC (D).
# HepG2 cell suspension (100 μL) were seeded on a 96-well plate (Greiner bio-one) at a density of 2×10^5 cells/mL, and the cells were incubated with Compounds 4 and 5 for 3 hours at 37° C., at a concentration of 6 μM. After incubation, medium exchange was performed, and the cells were then subjected to fluorescent microscopic observation. Microscopic images of the cells were captured by a Yokogawa CSU22 confocal fluorescence microscope with 405 nm laser excitation.
# [7] = system: Jurkat cells; experiment: Microinjection of Alexa Fluor 594; format: cell-based, human; conditions: 5 μg/mL reagent
# Procedure: The concentration of the reagents used was 5 μg/mL.
# The solutions of adhesamine (1), Type I collagen, poly-L-lysine hydrochloride, and fibronectin were prepared by diluting with PBS containing 1% (v/v) DMSO. 10 μL of each solution (1 mg/mL) was added to glass bottom culture dishes (35 mm uncoated dish). 2 mL of cell suspension in a culture medium was added to each well at a density of 2×10^5 cells/mL. After 14-hour incubation at 37° C., Alexa Fluor 594 (Molecular Probes, USA) at a concentration of 5 mg/mL was injected into Jurkat cells by using a CI-2000 automated cell injection system (Fujitsu, Japan). Success rates of the microinjection were evaluated by direct observation of the fluorescent cells through a fluorescent-microscopic window of the injection system. The data shown are means±SD for a minimum of three experiments. 20 cells were injected in each experiment.
# [8] = read-out: IC50 (GAGs, 50% inhibition of adhesamine-induced cell attachment)
molecule,measurement,setting,value
Clc1nc(Cl)nc(N2CC[N+]3(CC2)CC[N+]2(CCN(c4nc(Cl)nc(Cl)n4)CC2)CC3)n1 [Compound 9],Jurkat cell adhesion rate (%) in 6 μM of Adhesamine,[1],35 ± 5.2%
CSc1nc(Cl)c(CO)c(N2CC[N+]3(CC2)CC[N+]2(CCN(c4nc(SC)nc(Cl)c4CO)CC2)CC3)n1 [Compound 3],cell-adhesion promoting activity of adhesamine derivatives,[1],no impact on activity
Heparin [reference compound],IC50,[2]; [8],270 nM
same,IC50,"[2]; read-out: IC50 (heparin oligosaccharides, 50% inhibition of adhesamine-induced cell attachment)",270 ± 50 nM
same,effect on adhesamine-induced phosphorylation of FAK,[3],reduced
same,effect on adhesamine-induced ERK activation,[4],blocked
O=[N+]([O-])c1c(Cl)ncnc1N1CC[N+]2(CC1)CC[N+]1(CCN(c3ncnc(Cl)c3[N+](=O)[O-])CC1)CC2 [Compound 6],Jurkat cell adhesion rate (%) in 6 μM of Adhesamine,[1],22 ± 3.2%
COC(=O)Nc1nc2ccc(C(=O)c3cccs3)cc2[nH]1 [nocodazole],effect on adhesamine-mediated cell adhesion,[5],inhibited
same,effect on fibronectin-mediated cell adhesion,[5],impaired
same,effect on cell attachment induced by poly-L-lysine,[5],no detectable effects; also recorded: hardly inhibited
CSc1nc(Cl)c(C=O)c(N2CC[N+]3(CC2)CC[N+]2(CCN(c4ncnc(N5CC[N+]6(CC5)CC[N+]5(CCN(c7nc(SC)nc(Cl)c7C=O)CC5)CC6)c4[N+](=O)[O-])CC2)CC3)n1.[Cl-].[Cl-].[Cl-].[Cl-] [Compound 8],Jurkat cell adhesion rate (%) in 6 μM of Adhesamine,[1],28 ± 4.1%
O=[N+]([O-])c1c(N2CC[N+]3(CC2)CC[N+]2(CCNCC2)CC3)ncnc1N1CC[N+]2(CC1)CC[N+]1(CCNCC1)CC2.[Cl-].[Cl-].[Cl-].[Cl-] [Compound 7],Jurkat cell adhesion rate (%) in 6 μM of Adhesamine,[1],21 ± 1.3%
Heparan sulfate,IC50,[2]; [8],790 nM
Hyaluronic acid,ability to squelch the activity of adhesamine,[2]; GAG added to the medium together with adhesamine,no detectable effect
same,IC50,[2]; [8],> 120000 nM
CN(C)c1cccc2c(S(=O)(=O)N3CC[N+]4(CC3)CC[N+]3(CCN(S(=O)(=O)c5cccc6c(N(C)C)cccc56)CC3)CC4)cccc12 [Compound 5],cell-adhesion promoting activity of adhesamine derivatives,[1],little effect on cell adhesion
same,localization of the fluorescent compound,[6],no clear localization
"fibronectin: fibronectin from bovine plasma, plate-coating reagent",microinjection success rates,[7],up to 30%
CSc1nc(Cl)c(C=NNS(=O)(=O)c2cccc3c(N(C)C)cccc23)c(N2CC[N+]3(CC2)CC[N+]2(CCN(c4nc(SC)nc(Cl)c4C=NNS(=O)(=O)c4cccc5c(N(C)C)cccc45)CC2)CC3)n1 [Compound 4],cell-adhesion promoting activity of adhesamine derivatives,[1],maintained the cell-adhesion promoting activity
same,localization of the fluorescent compound,[6],on the cell surface
same,localization of the fluorescent probe,[6]; HepG2 cells treated with chondroitinase,no impact on the cell-surface localization
same,localization of the fluorescent probe,[6]; HepG2 cells treated with heparan sulfate-degrading enzymes,diffused from the cell surface
"C1C[N+]2(CCN1)CC[N+]1(CCNCC1)CC2.[Br-].[Br-] [Compound 2, 3,12-diaza-6,9-diazoniadispiro-(5,2,5,2)-hexadecane dibromide, reference compound]",cell-adhesion promoting activity of adhesamine derivatives,[1],completely eliminated the activity
Keratan sulfate,IC50,[2]; [8],1030 nM
C=C1[C@@H](C)[C@H]2[C@H](Cc3ccccc3)NC(=O)[C@]23OC(=O)/C=C/[C@H](O)CCC[C@@H](C)C/C=C/[C@H]3[C@@H]1O [cytochalasin B],effect on adhesamine-mediated cell adhesion,[5],inhibited
same,effect on fibronectin-mediated cell adhesion,[5],impaired
same,effect on cell attachment induced by poly-L-lysine,[5],no detectable effects; also recorded: hardly inhibited
